Test results: publication PMC8510236, “Unraveling the Compositional and Molecular Features Involved in Lysozyme-Benzothiazole Derivative Interactions” (Molecules, 2021)
pKd: −log10 of the molar value. Counter-ions that a name gives are not always drawn.

Target: T1, Lysozyme from chicken egg white (Gallus gallus, UniProt P00698)
T1 construct: gene LYZ
Experiment: isothermal titration calorimetry (VP-ITC)
Assay type: binding
Conditions: read-out: K

T1 sequence (P00698 19-147): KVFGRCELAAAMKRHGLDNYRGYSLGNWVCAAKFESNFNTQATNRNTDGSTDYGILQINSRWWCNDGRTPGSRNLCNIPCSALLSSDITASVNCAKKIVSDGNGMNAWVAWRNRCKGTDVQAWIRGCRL

O=S(=O)(O)CCCSc1nc2ccccc2s1 [BTS, 3-(2-Benzohiazolylthio)-1-propane-sulfonic acid sodium salt] was tested, and the pKd was 5.58.
